# In PMC9028278, “2-Pyridine Carboxaldehyde for Semi-Automated Soft Spot Identification in Cyclic Peptides” (International Journal of Molecular Sciences, 2022):
# Where a SMILES comes first, the peptide text is derived from it. Bridges are numbered along the chain shown (N, C = ends).
# Assay: Soft spot identification time course in dilute rat intestinal luminal contents with 2PCA derivatization
# Assay type: in vitro ADME
# Details: 10 µM peptide; for metabolic soft spot: most N-terminal residue of the ring-opened (singly hydrolyzed) peptide, assigned through the 2PCA tag: dilute rat intestinal luminal contents (fasted male SD rats, duodenum and jejunum), 0.02 mg/mL total protein in 5 mM pH 7.4 phosphate buffer, 37 °C, aliquots at 0, 2.5, 10, 20 min, quenched with acetonitrile containing 20 mM 2PCA, overnight at room temperature, LC-MS/MS (targeted MS/MS, AIF, background subtraction)
# Description: This three-pronged approach was used to analyze two commercially available cyclic peptides, JB1 and somatostatin, in a typical soft spot identification workflow with automated sample preparation. Both JB1, a 12-mer cyclic peptide with the sequence CYAAPLKPAKSC, and somatostatin, a 14-mer cyclic peptide with the sequence AGCKNFFWKTFTSC (disulfide bound between Cys residues), were subjected to incubation in dilute rat intestinal luminal contents matrix on a liquid handling system. To facilitate unsupervised sample preparation, the enzymatic activity of the matrix was quenched with 1 volume of acetonitrile containing 20 mM 2PCA and incubated overnight. The following day, the samples were injected into the MS for analysis directly with the approach outlined in Figure 3. To increase the throughput and proportion of ‘hands-off’ time, the derivatization step was not quenched, and excess reagent or Schiff bases formed during the incubation were not scavenged by hydrazide (as was performed during the selectivity experiments on the tryptic HeLa lysate). While omitting the hydrazide scavenging step could introduce a decrease in sensitivity due to Schiff base formation on basic sites, the concentrations typically used in in vitro incubations ensure that minor decreases in sensitivity will not have deleterious effects on the workflow as a whole. In this case, the liquid handler utilized was unable to manipulate magnetic beads, but future experiments will incorporate a magnetic-bead-compatible liquid handler to incorporate the scavenging step. The method described has the potential to create more than one 2PCA adduct on a given peptide with basic sites, but the utilization of a targeted approach for the singly modified peptide as outlined here circumvents that complication and ensures MS/MS sampling of the peptide of interest.
# HeLa S9 lysate tryptic digest was purchased from ThermoFisher (San Jose, CA, USA). […]
# The flushed intestinal luminal contents from fasted rats were pooled and the concentration of protein was determined. […]
SMILES,"metabolic soft spot: most N-terminal residue of the ring-opened (singly hydrolyzed) peptide, assigned through the 2PCA tag","secondary metabolite (subsequent hydrolysis step after ring opening) (dilute rat intestinal luminal contents, 0.02 mg/mL protein, pH 7.4, 37 °C, 10 min time point, background subtracted AIF XIC of m/z 107.0609)"
C[C@H](N)C(=O)NCC(=O)N[C@H]1CSSC[C@@H](C(=O)O)NC(=O)[C@H](CO)NC(=O)[C@H]([C@@H](C)O)NC(=O)[C@H](Cc2ccccc2)NC(=O)[C@H]([C@@H](C)O)NC(=O)[C@H](CCCCN)NC(=O)[C@H](Cc2c[nH]c3ccccc23)NC(=O)[C@H](Cc2ccccc2)NC(=O)[C@H](Cc2ccccc2)NC(=O)[C@H](CC(N)=O)NC(=O)[C@H](CCCCN)NC1=O [somatostatin],first threonine (followed by phenylalanine),
CC(C)C[C@@H]1NC(=O)[C@@H]2CCCN2C(=O)[C@H](C)NC(=O)[C@H](C)NC(=O)[C@H](Cc2ccc(O)cc2)NC(=O)[C@@H](N)CSSC[C@@H](C(=O)O)NC(=O)[C@H](CO)NC(=O)[C@H](CCCCN)NC(=O)[C@H](C)NC(=O)[C@@H]2CCCN2C(=O)[C@H](CCCCN)NC1=O [JB1] (H-CYAAPLKPAKSC-OH; disulfide 1-12),serine,clipping of the C-terminal Lysine residue
